{"source": "patent US8933230B2", "about": "“Phosphorus-containing group-substituted quinoline, its preparation process, medical composition containing the compounds and application” (priority 2011, dated 2015)", "assay_in_all_cases": "KinomeScan kinase panel", "assay_type_in_all_cases": "binding", "key": {"[1]": {"target": "T1, TNIK (Homo sapiens, UniProt Q9UKE5)", "T1 construct": "purchased DiscoveRx Corporation (KinomeScan)", "protocol": "(§1) In this example, the compound prepared in Example 10, N1-[4-[[7-[[1-(diethoxyphosphorylmethyl)-4-piperidinyl]methoxyl]-6-methoxyl-4-quinolyl]oxyl]-3-fluorophenyl]-N1′-(4-fluorophenyl)cyclopropane-1,1-dicarboxamide is tested for the inhibitory effect in the 442-kinase panel of KinomeScan™ (www.kinomescan.com) from DiscoveRx Corporation (4215 Sorrento Valley Blvd, San Diego, Calif. 92121) at 1000 nM of the compound concentration, the results are shown in the following Table 5:\n(§2) For the detailed information of the screening technique, see Fabian, M. A. et al, Nat., Biotechnol. 2005, 23, 329 and Karaman, M. W. et al, Nat., Biotechnol. 2008, 26, 127. It can be seen from the following representative results that, the compound according to the present invention has significant inhibitory effect on kinases including c-Met, KDR or VEGFR2, RET, PDGFR-β, c-KIT, Flt3, MEK5, DDR1, LOK, CSF1R, EPHA7, EPHA8, EPHB6, MKNK2, BLK, HIPK4, HCK, Flt4 and the mutants thereof"}, "[2]": {"target": "T2, LOK (Homo sapiens, UniProt O94804)", "T2 construct": "purchased DiscoveRx Corporation (KinomeScan)", "protocol": "as §1, §2"}, "[3]": {"target": "T3, FLT3(R834Q) (Homo sapiens, UniProt P36888, R834Q)", "T3 construct": "purchased DiscoveRx Corporation (KinomeScan)", "protocol": "as §1, §2"}, "[4]": {"target": "T4, DMPK (Homo sapiens, UniProt Q09013)", "T4 construct": "purchased DiscoveRx Corporation (KinomeScan)", "protocol": "as §1, §2"}, "[5]": {"target": "T5, PRKCE (Homo sapiens, UniProt Q02156)", "T5 construct": "purchased DiscoveRx Corporation (KinomeScan)", "protocol": "as §1, §2"}, "[6]": {"target": "T6, PIK3CA(Q546K) (Homo sapiens, UniProt P42336, Q546K)", "T6 construct": "purchased DiscoveRx Corporation (KinomeScan)", "T6 sequence (P42336 whole entry Q546K)": "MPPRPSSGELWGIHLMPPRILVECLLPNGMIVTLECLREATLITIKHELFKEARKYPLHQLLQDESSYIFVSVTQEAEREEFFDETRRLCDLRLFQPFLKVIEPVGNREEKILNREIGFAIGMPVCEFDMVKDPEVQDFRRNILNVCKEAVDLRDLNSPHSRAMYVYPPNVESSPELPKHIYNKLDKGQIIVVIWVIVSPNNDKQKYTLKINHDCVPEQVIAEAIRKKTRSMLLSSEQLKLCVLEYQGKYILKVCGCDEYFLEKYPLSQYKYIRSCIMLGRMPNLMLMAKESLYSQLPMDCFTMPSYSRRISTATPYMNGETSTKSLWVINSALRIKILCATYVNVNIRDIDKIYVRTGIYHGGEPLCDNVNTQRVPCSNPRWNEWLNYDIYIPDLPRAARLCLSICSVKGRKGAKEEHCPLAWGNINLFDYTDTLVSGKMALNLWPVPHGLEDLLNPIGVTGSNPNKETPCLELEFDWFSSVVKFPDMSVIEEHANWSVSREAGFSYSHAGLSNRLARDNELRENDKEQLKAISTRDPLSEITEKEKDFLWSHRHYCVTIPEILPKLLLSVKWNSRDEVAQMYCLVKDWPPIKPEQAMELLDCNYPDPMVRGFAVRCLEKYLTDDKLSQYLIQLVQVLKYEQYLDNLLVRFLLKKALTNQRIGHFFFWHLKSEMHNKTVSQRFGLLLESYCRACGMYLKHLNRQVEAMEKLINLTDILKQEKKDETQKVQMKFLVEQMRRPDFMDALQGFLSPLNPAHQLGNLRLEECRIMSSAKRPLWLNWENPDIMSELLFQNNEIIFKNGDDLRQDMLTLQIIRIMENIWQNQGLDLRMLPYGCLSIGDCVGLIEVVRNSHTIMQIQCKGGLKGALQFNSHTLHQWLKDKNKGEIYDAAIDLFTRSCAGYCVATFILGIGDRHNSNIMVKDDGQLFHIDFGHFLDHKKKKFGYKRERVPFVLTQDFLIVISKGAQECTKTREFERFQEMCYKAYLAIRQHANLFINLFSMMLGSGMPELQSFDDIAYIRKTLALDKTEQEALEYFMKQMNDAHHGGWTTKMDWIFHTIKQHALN", "protocol": "as §1, §2"}, "[7]": {"target": "T7, PAK4 (Homo sapiens, UniProt O96013)", "T7 construct": "purchased DiscoveRx Corporation (KinomeScan panel)", "protocol": "as §1, §2"}, "[8]": {"target": "T8, LATS1 (Homo sapiens, UniProt O95835)", "T8 construct": "purchased DiscoveRx Corporation (KinomeScan)", "protocol": "as §1, §2"}, "[9]": {"target": "T9, PDGFRB (Homo sapiens, UniProt P09619)", "T9 construct": "purchased DiscoveRx Corporation (KinomeScan panel)", "T9 sequence (P09619 33-1106)": "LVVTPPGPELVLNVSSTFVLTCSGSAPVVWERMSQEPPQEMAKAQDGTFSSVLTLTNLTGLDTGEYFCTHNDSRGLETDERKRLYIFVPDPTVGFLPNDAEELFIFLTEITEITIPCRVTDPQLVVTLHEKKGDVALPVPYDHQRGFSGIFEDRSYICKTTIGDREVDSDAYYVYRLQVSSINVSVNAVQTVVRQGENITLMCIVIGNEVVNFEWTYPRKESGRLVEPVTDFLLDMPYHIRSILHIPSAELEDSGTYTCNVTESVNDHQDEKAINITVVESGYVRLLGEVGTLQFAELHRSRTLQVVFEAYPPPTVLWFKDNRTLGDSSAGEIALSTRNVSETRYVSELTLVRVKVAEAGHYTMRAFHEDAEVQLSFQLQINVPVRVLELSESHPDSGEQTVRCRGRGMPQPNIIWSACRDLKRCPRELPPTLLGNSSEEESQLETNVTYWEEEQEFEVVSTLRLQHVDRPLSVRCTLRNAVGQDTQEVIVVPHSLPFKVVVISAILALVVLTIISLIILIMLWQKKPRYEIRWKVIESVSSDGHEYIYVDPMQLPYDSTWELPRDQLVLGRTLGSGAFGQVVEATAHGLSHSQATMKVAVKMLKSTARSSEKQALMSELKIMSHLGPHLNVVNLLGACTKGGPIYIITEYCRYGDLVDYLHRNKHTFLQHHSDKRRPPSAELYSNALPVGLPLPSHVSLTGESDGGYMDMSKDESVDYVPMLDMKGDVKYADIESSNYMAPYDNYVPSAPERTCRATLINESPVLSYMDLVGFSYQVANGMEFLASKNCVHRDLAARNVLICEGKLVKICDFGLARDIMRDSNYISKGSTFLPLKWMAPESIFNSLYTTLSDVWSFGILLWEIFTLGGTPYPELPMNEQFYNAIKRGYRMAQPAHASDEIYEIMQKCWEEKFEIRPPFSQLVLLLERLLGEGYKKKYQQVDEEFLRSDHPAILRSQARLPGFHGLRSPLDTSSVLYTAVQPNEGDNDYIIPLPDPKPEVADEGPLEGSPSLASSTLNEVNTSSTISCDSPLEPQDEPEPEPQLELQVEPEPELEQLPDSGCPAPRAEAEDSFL", "protocol": "as §1, §2"}, "[10]": {"target": "T10, RSK4(Kin.Dom.1-N-terminal) (Homo sapiens, UniProt Q9UK32)", "T10 construct": "Kin.Dom.1; purchased DiscoveRx Corporation (KinomeScan)", "T10 sequence (Q9UK32 73-330 limits assumed)": "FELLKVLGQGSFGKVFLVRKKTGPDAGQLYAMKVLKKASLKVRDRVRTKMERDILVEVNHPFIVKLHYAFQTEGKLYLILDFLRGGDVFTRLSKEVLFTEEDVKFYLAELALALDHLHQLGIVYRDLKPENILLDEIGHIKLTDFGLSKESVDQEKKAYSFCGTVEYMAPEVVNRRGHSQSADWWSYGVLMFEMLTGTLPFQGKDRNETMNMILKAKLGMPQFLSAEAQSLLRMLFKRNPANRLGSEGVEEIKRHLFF", "protocol": "as §1, §2"}, "[11]": {"target": "T11, CAMKK2 (Homo sapiens, UniProt Q96RR4)", "T11 construct": "purchased DiscoveRx Corporation (KinomeScan)", "protocol": "as §1, §2"}, "[12]": {"target": "T12, BIKE (Homo sapiens, UniProt Q9NSY1)", "T12 construct": "purchased DiscoveRx Corporation (KinomeScan)", "protocol": "as §1, §2"}, "[13]": {"target": "T13, PIK3CA (H1047Y) (Homo sapiens, UniProt P42336, H1047Y)", "T13 construct": "purchased DiscoveRx Corporation (KinomeScan)", "T13 sequence (P42336 whole entry H1047Y)": "as the sequence (P42336 whole entry Q546K) above, with K546Q, H1047Y counted along it", "protocol": "as §1, §2"}, "[14]": {"target": "T14, VRK2 (Homo sapiens, UniProt Q86Y07)", "T14 construct": "purchased DiscoveRx Corporation (KinomeScan service)", "protocol": "as §1, §2"}, "[15]": {"target": "T15, PIK3CA (H1047L) (Homo sapiens, UniProt P42336, H1047L)", "T15 construct": "purchased DiscoveRx Corporation (KinomeScan)", "T15 sequence (P42336 whole entry H1047L)": "as the sequence (P42336 whole entry Q546K) above, with K546Q, H1047L counted along it", "protocol": "as §1, §2"}, "[16]": {"target": "T16, FGFR (Homo sapiens, UniProt P21802)", "T16 construct": "purchased DiscoveRx Corporation (KinomeScan)", "protocol": "as §1, §2"}, "[17]": {"target": "T17, WEE2 (Homo sapiens, UniProt P0C1S8)", "T17 construct": "purchased DiscoveRx Corporation (KinomeScan service)", "protocol": "as §1, §2"}, "[18]": {"target": "T18, CAMK1 (Homo sapiens, UniProt Q14012)", "T18 construct": "purchased DiscoveRx Corporation (KinomeScan)", "protocol": "as §1, §2"}, "[19]": {"target": "T19, FER (Homo sapiens, UniProt P16591)", "T19 construct": "purchased DiscoveRx Corporation (KinomeScan)", "protocol": "as §1, §2"}, "[20]": {"target": "T20, BTK (Homo sapiens, UniProt Q06187)", "T20 construct": "purchased DiscoveRx Corporation (KinomeScan)", "protocol": "as §1, §2"}, "[21]": {"target": "T21, TLK1 (Homo sapiens, UniProt Q9UKI8)", "T21 construct": "purchased DiscoveRx Corporation (KinomeScan)", "protocol": "as §1, §2"}, "[22]": {"target": "T22, EGFR(L858R) (Homo sapiens, UniProt P00533, L858R)", "T22 construct": "purchased DiscoveRx Corporation (KinomeScan)", "protocol": "as §1, §2"}, "[23]": {"target": "T23, DCAMKL2 (Homo sapiens, UniProt Q8N568)", "T23 construct": "purchased DiscoveRx Corporation (KinomeScan)", "protocol": "as §1, §2"}, "[24]": {"target": "T24, LIMK2 (Homo sapiens, UniProt P53671)", "T24 construct": "purchased DiscoveRx Corporation (KinomeScan)", "protocol": "as §1, §2"}, "[25]": {"target": "T25, STK39 (Homo sapiens, UniProt Q9UEW8)", "T25 construct": "purchased DiscoveRx Corporation (KinomeScan)", "protocol": "as §1, §2"}, "[26]": {"target": "T26, MAP4K4 (Homo sapiens, UniProt O95819)", "T26 construct": "purchased DiscoveRx Corporation (KinomeScan)", "protocol": "as §1, §2"}, "[27]": {"target": "T27, CSNK1E (Homo sapiens, UniProt P49674)", "T27 construct": "purchased DiscoveRx Corporation (KinomeScan)", "protocol": "as §1, §2"}, "[28]": {"target": "T28, SNRK (Homo sapiens, UniProt Q9NRH2)", "T28 construct": "purchased DiscoveRx Corporation (KinomeScan)", "protocol": "as §1, §2"}, "[29]": {"tested_on": "FLT3(N841L)", "protocol": "as §1, §2"}, "[30]": {"target": "T29, ABL2 (Homo sapiens, UniProt P42684)", "T29 construct": "purchased DiscoveRx Corporation (KinomeScan)", "T29 sequence (P42684 whole entry)": "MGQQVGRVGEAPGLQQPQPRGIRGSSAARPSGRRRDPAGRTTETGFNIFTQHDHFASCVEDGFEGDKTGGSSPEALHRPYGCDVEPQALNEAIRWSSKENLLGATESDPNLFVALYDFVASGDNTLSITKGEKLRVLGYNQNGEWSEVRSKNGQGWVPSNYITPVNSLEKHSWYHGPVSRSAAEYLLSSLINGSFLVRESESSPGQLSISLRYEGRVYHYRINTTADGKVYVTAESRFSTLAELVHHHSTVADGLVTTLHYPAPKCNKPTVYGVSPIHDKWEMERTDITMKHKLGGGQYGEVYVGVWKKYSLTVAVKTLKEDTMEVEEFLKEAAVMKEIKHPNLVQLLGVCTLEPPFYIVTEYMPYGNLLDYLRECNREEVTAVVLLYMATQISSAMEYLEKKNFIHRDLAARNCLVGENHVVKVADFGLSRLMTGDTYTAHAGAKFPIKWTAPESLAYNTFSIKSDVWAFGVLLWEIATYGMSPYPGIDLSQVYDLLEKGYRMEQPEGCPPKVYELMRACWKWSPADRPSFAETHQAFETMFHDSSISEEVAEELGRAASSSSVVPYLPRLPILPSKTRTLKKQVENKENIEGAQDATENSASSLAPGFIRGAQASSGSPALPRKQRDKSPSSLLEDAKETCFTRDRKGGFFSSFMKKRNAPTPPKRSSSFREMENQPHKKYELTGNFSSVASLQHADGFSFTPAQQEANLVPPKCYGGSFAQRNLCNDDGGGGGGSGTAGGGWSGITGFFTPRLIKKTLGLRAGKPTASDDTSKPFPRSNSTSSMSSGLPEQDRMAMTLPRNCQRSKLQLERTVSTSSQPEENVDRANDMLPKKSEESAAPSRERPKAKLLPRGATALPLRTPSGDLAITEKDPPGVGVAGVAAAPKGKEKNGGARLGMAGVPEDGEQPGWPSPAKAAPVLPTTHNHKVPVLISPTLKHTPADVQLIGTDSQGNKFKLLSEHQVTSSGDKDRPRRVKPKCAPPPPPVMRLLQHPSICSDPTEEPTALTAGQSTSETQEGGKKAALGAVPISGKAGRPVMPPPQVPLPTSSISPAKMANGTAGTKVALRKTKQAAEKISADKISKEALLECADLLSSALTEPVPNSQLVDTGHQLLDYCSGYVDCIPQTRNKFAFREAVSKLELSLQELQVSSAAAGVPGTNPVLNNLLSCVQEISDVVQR", "protocol": "as §1, §2"}, "[31]": {"target": "T30, TYRO3 (Homo sapiens, UniProt Q06418)", "T30 construct": "purchased DiscoveRx Corporation (KinomeScan service)", "T30 sequence (Q06418 41-890)": "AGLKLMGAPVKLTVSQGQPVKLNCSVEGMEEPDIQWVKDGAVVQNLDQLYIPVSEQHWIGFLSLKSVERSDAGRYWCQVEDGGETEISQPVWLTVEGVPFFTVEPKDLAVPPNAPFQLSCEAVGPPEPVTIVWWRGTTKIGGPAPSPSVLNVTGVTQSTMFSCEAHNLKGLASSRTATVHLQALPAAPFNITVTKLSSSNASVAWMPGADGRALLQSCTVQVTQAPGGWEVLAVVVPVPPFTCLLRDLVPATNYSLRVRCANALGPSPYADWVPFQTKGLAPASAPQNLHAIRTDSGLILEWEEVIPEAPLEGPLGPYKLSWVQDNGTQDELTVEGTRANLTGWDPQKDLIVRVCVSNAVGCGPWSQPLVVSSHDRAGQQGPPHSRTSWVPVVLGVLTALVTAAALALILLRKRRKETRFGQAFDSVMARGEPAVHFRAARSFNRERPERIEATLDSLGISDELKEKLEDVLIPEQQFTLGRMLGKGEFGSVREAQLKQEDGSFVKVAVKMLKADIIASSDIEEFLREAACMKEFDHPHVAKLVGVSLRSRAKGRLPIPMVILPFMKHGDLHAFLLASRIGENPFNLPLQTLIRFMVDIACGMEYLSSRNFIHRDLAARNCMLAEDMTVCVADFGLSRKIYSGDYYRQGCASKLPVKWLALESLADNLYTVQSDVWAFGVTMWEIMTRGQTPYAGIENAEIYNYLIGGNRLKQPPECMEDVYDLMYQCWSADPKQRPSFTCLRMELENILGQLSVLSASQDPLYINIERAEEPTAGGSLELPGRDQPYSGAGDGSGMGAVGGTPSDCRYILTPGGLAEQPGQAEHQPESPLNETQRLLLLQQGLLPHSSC", "protocol": "as §1, §2"}, "[32]": {"target": "T31, NDR1 (Homo sapiens, UniProt Q15208)", "T31 construct": "purchased DiscoveRx Corporation (KinomeScan)", "protocol": "as §1, §2"}, "[33]": {"target": "T32, CSK (Homo sapiens, UniProt P41240)", "T32 construct": "purchased DiscoveRx Corporation (KinomeScan)", "protocol": "as §1, §2"}, "[34]": {"target": "T33, EPHA4 (Homo sapiens, UniProt P54764)", "T33 construct": "purchased DiscoveRx Corporation (KinomeScan)", "protocol": "as §1, §2"}, "[35]": {"target": "T34, MEK5 (Homo sapiens, UniProt Q13163)", "T34 construct": "purchased DiscoveRx Corporation (KinomeScan)", "T34 sequence (Q13163 whole entry)": "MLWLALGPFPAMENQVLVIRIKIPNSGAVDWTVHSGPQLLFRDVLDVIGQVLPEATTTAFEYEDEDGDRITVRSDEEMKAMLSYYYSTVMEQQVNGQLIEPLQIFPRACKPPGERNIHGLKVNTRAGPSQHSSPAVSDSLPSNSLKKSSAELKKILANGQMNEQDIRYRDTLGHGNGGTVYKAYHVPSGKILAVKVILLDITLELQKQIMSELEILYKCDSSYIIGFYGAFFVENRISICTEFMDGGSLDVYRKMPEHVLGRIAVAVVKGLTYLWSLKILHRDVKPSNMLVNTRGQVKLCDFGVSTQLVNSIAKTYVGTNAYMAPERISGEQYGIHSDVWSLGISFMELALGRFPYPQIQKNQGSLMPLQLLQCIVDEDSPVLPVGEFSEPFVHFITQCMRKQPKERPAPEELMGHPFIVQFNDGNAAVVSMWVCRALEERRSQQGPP", "protocol": "as §1, §2"}}, "data": [{"smiles": "CCOP(=O)(CN1CCC(COc2cc3nccc(Oc4ccc(NC(=O)C5(C(=O)Nc6ccc(F)cc6)CC5)cc4F)c3cc2OC)CC1)OCC", "note": "[Example 10, N1-[4-[[7-[[1-(diethoxyphosphorylmethyl)-4-piperidinyl]methoxyl]-6-methoxyl-4-quinolyl]oxyl]-3-fluorophenyl]-N1′-(4-fluorophenyl)cyclopropane-1,1-dicarboxamide]", "values": [{"measurement": "% Ctrl@1000 nM", "setting": "[1]", "result": 70, "unit": "% Ctrl"}, {"measurement": "% Ctrl@1000 nM", "setting": "[2]", "result": 0, "unit": "% Ctrl"}, {"measurement": "% Ctrl@1000 nM", "setting": "[3]", "result": 16, "unit": "% Ctrl"}, {"measurement": "% Ctrl@1000 nM", "setting": "[4]", "result": 85, "unit": "% Ctrl"}, {"measurement": "% Ctrl@1000 nM", "setting": "[5]", "result": 100, "unit": "% Ctrl"}, {"measurement": "% Ctrl@1000 nM", "setting": "[6]", "result": 100, "unit": "% Ctrl"}, {"measurement": "% Ctrl@1000 nM", "setting": "[7]", "result": 100, "unit": "% Ctrl"}, {"measurement": "% Ctrl@1000 nM", "setting": "[8]", "result": 100, "unit": "% Ctrl"}, {"measurement": "% Ctrl@1000 nM", "setting": "[9]", "result": 0, "unit": "% Ctrl"}, {"measurement": "% Ctrl@1000 nM", "setting": "[10]", "result": 77, "unit": "% Ctrl"}, {"measurement": "% Ctrl@1000 nM", "setting": "[11]", "result": 81, "unit": "% Ctrl"}, {"measurement": "% Ctrl@1000 nM", "setting": "[12]", "result": 100, "unit": "% Ctrl"}, {"measurement": "% Ctrl@1000 nM", "setting": "[13]", "result": 63, "unit": "% Ctrl"}, {"measurement": "% Ctrl@1000 nM", "setting": "[14]", "result": 100, "unit": "% Ctrl"}, {"measurement": "% Ctrl@1000 nM", "setting": "[15]", "result": 100, "unit": "% Ctrl"}, {"measurement": "% Ctrl@1000 nM", "setting": "[16]", "result": 76, "unit": "% Ctrl"}, {"measurement": "% Ctrl@1000 nM", "setting": "[17]", "result": 100, "unit": "% Ctrl"}, {"measurement": "% Ctrl@1000 nM", "setting": "[18]", "result": 78, "unit": "% Ctrl"}, {"measurement": "% Ctrl@1000 nM", "setting": "[19]", "result": 50, "unit": "% Ctrl"}, {"measurement": "% Ctrl@1000 nM", "setting": "[20]", "result": 51, "unit": "% Ctrl"}, {"measurement": "% Ctrl@1000 nM", "setting": "[21]", "result": 88, "unit": "% Ctrl"}, {"measurement": "% Ctrl@1000 nM", "setting": "[22]", "result": 59, "unit": "% Ctrl"}, {"measurement": "% Ctrl@1000 nM", "setting": "[23]", "result": 100, "unit": "% Ctrl"}, {"measurement": "% Ctrl@1000 nM", "setting": "[24]", "result": 100, "unit": "% Ctrl"}, {"measurement": "% Ctrl@1000 nM", "setting": "[25]", "result": 100, "unit": "% Ctrl"}, {"measurement": "% Ctrl@1000 nM", "setting": "[26]", "result": 100, "unit": "% Ctrl"}, {"measurement": "% Ctrl@1000 nM", "setting": "[27]", "result": 100, "unit": "% Ctrl"}, {"measurement": "% Ctrl@1000 nM", "setting": "[28]", "result": 100, "unit": "% Ctrl"}, {"measurement": "% Ctrl@1000 nM", "setting": "[29]", "result": 0, "unit": "% Ctrl"}, {"measurement": "% Ctrl@1000 nM", "setting": "[30]", "result": 28, "unit": "% Ctrl"}, {"measurement": "% Ctrl@1000 nM", "setting": "[31]", "result": 41, "unit": "% Ctrl"}, {"measurement": "% Ctrl@1000 nM", "setting": "[32]", "result": 100, "unit": "% Ctrl"}, {"measurement": "% Ctrl@1000 nM", "setting": "[33]", "result": 14, "unit": "% Ctrl"}, {"measurement": "% Ctrl@1000 nM", "setting": "[34]", "result": 4, "unit": "% Ctrl"}, {"measurement": "% Ctrl@1000 nM", "setting": "[35]", "result": 0.25, "unit": "% Ctrl"}]}]}
